Measured values as given in patent publication US8436007B2, “Inhibitors of protein kinases” (Ingenium Pharmaceuticals GmbH, priority 2007, dated 2013).
Entries after “also recorded” stand apart in the source; their conditions may differ.

How the values were obtained:
[1] = test system: TNFα expression in LPS induced THP-1 macrophages; test: In vitro THP-1 assay: TNFα expression in LPS-induced THP-1 macrophages (ELISA of supernatant); type: cell-based, human; conditions: differentiated THP-1 cells, 60 min pre-incubation with compound (0.5 to 5 μM), 100 ng/ml LPS for 4-48 h, triplicates
Experimental: (§1) The human THP-1 cell line can be utilized as an in vitro model of cytokine expression as mediated by Lipopolysaccharide (LPS) or Tumor Necrosis Factorα [TNFα]. Monocytic THP-1 cells (ATCC; TIB-202) can be differentiated into macrophage-like cells expressing pro-inflammatory cytokines like TNFα, IL6 and IL1β upon induction with LPS or by TNFα (autocrine induction) itself. THP-1 cells are grown in modified RPMI-1640 medium (ATCC, Cat. No. 30-2001) supplemented with 10% FCS and 1% Pen/Strep. For cytokine inhibition assays, cells are seeded at a density of 5×10^5 cells/ml into 6-well plates in standard growth medium supplemented with 100 ng/ml PMA (Sigma, P1585) to induce differentiation into macrophage-like cells. After 24 hours, the medium is replaced with standard growth medium (without PMA) and the cells are incubated for another 48 hours to complete differentiation. After 72 h of differentiation, the medium is replaced with serum free growth medium, and CDK-inhibiting compounds as well as reference compounds such as positive and negative controls, each dissolved in DMSO are added at concentrations ranging from 0.5 to 5 μM (final concentration of DMSO in the well is 0.1%). Cells are incubated for 60 min with compounds prior to stimulation with 100 ng/ml LPS (Sigma, L2630) for another 4-48 hours. Supernatants are collected and assayed immediately for cytokine expression, e.g. for TNFα, IL-6 and IL-1b using commercially available sandwich ELISA assays (eBioscience, Cat. No 88-7346, 88-7066, 88-7010) or kept frozen at […] until evaluation. Concentrations of TNFα, IL6 and IL1β within the cell culture supernatants are measured by using commercial ELISA Kits (eBioscience) according to the manufacturers' instructions. CDK-inhibitory compounds #1, 5, 6, 8, and 9 were administered at to differentiated THP-1 cells in triplicates as described above (see section 2.). After 60 min of pre-incubation with test or reference compound (SB203580, a p38 inhibitor and BMS345541, an IKK-inhibitor) alone, cells were stimulated with LPS. After incubation for 4-48 h, supernatants were collected and ELISA based determinations of cytokine supernatant concentrations were performed as described in section 3, supra.

[2] = test system: IL6 expression in LPS induced THP-1 macrophages; test: In vitro THP-1 assay: IL6 expression in LPS-induced THP-1 macrophages (ELISA of supernatant); type: cell-based, human; conditions: differentiated THP-1 cells, 60 min pre-incubation with compound (0.5 to 5 μM), 100 ng/ml LPS for 4-48 h, triplicates
Experimental: as §1

| Compound | inhibition of TNFα expression / protein concentration in the cell supernatant compared to vehicle (DMSO) [1] | inhibition of IL6 protein concentration in the cell supernatant compared to vehicle (DMSO) [2] |
| --- | --- | --- |
| COc1ccccc1-c1ccnc(Nc2cccc(CS(N)(=O)=O)c2)n1 [Compound 1, {3-[4-(2-Methoxy-phenyl)-pyrimidin-2-ylamino]-phenyl}-methanesulfonamide] | significant inhibitory effect; also recorded: significant inhibition | significant inhibitory effect |
| COc1cc(F)ccc1-c1ccnc(Nc2cccc(CS(N)(=O)=O)c2)n1 [Compound 5, {3-[4-(4-Fluoro-2-methoxy-phenyl)-pyrimidin-2-ylamino]-phenyl}-methanesulfonamide] | significant inhibitory effect; also recorded: significant inhibition | significant inhibitory effect |
| COc1ccccc1-c1ccnc(Nc2cccc(CS(=O)(=O)NC3CC3)c2)n1 [Compound 6, N-Cyclopropyl-C-{3-[4-(2-methoxy-phenyl)-pyrimidin-2-ylamino]-phenyl}-methanesulfonamide] | significant inhibitory effect; also recorded: significant inhibition | significant inhibitory effect |
| COc1ccccc1-c1ccnc(Nc2cccc(CS(=O)(=O)N(C)CCO)c2)n1 [Compound 8, N-(2-Hydroxy-ethyl)-C-{3-[4-(2-methoxy-phenyl)-pyrimidin-2-ylamino]-phenyl}-N-methyl-methanesulfonamide] | significant inhibitory effect; also recorded: significant inhibition | significant inhibitory effect |
| COc1ccccc1-c1ccnc(Nc2cccc(CS(=O)(=O)CCO)c2)n1 [Compound 9, 2-{3-[4-(2-Methoxy-phenyl)-pyrimidin-2-ylamino]-phenylmethanesulfonyl}-ethanol] | significant inhibitory effect; also recorded: significant inhibition | significant inhibitory effect |
